From US4454128A, “6α-Methoxy-penicillins” (Dr. Karl Thomae GmbH, priority 1981, dated 1984) come the findings set out here.

In brackets after ≈: the same amount, converted by molar mass. Where two headings read alike, the source gives them in different places.

The test system of test [1] is Serratia marcescens ATCC 13 880. As to the kind of experiment: In vitro MIC, series dilution test in microtiter system. Type of test: cell-based. Particulars: Serr. marc. ATCC 13880, 18 to 20 hours at 37° C., read-out: minimum inhibitory concentration (MIC). How it is done: (§1) For the tests, the method of the series dilution test in the microtiter system was used. The substances were tested for bacteriostasis in a liquid medium. The bacteriostatic activity was tested at the following concentration: 128; 64; 32; 16; 8; 4; 2; 1; 0.5; 0.25; 0.12; 0.06 μg/ml.
(§2) A nutrient medium having the following composition was used: 10 gm of peptone, 8 gm of meat extract oxoid, 3 gm of sodium chloride, 2 gm of sec. sodium phosphate are made up to […] with distilled water (pH 7.2 to 7.4). The age of the primary cultures was about 20 hours.
(§3) The bacterial suspension was adjusted, using the photometer (according to "Eppendorf") (test tube diameter 14 mm, filter 546 nm) by reference to the turbidity of a barium sulfate comparison suspension which was produced by a barium sulfate suspension formed by the addition of 3.0 ml of 1% barium chloride solution to 97 ml of 1% sulfuric acid. After adjustment, Streptococcus aronson was diluted in the ratio 1:15 and the other test pathogens were diluted in the ratio 1:1500 with a common salt solution.
(§4) 16 mg of the test substance were weighed in 10 ml measuring flasks and solvent was added up to the mark. Further dilutions in the series were made with distilled water or the solvent in question.
(§5) The depressions in the microtiter plates were filled with 0.2 ml of nutrient medium, 0.01 ml of the corresponding diluted substance and a drop of bacterial suspension (0.01 ml), and incubated for 18 to 20 hours at 37° C. A solvent check was carried out continuously at the same time.
(§6) The reading was taken macroscopically, and the respective limiting concentration (=the lower concentration still having bateriostatic activity) was determined.
(§7) The following were used as test organisms:
(§8) Escherichia coli ATCC 11 775, Serratia marcescens ATCC 13 880, Klebsiella pneumoniae ATCC 10 031 and BC 6, Proteus Mirabilis BC 17, Proteus rettgeri BC 7, Enterobacter cloacae ATCC 13 047, E. coli R^+ TEM(β-lactamase carrier) and K. pneumoniae 1088 E (β-lactamase carrier).
(§9) Table 1 which follows lists the minimum inhibitory concentrations (MIC) determined for typical representatives of the compounds according to the invention. These are the sodium salts of compounds of the formula I, where A=p-hydroxyphenyl and R is defined as follows: […]

Test [2] concerns Proteus Mirabilis BC 17. Described as above. Type of test: cell-based. The conditions noted are these: Prot. mir. BC 17, 18 to 20 hours at 37° C., read-out: minimum inhibitory concentration (MIC). How it is done:
as §1, §2, §3, §4, §5, §6, §7, §8, §9

Test [3] relates to Enterobacter cloacae ATCC 13 047. The description is as above. Type of test: cell-based. Particulars: Eb. cloac. ATCC 13047, 18 to 20 hours at 37° C., read-out: minimum inhibitory concentration (MIC). How it is done: as §1, §2, §3, §4, §5, §6, §7, §8, §9
Test [4] deals with Escherichia coli ATCC 11 775. Described as above. Type of test: cell-based. Particulars: E. coli ATCC 11775, 18 to 20 hours at 37° C., read-out: minimum inhibitory concentration (MIC). How it is done:
as §1, §2, §3, §4, §5, §6, §7, §8, §9

The subject of test [5] is Proteus rettgeri BC 7. The test is described as above. The conditions noted are these: Providencia rettgeri, BC7; Prot. rettg. BC 7; 18 to 20 hours at 37° C.; read-out: minimum inhibitory concentration (MIC). In kind it is cell-based. The method, then:
as §1, §2, §3, §4, §5, §6, §7, §8, §9

In test [6] the test system is E. coli R^+ TEM(β-lactamase carrier). Described as above. In kind it is cell-based. Particulars: Escherichia coli, read-out: minimum inhibitory concentration (MIC). How it is done:
as §1, §2, §3, §4, §5, §6, §7, §8, §9

For test [7], the system named is K. pneumoniae 1088 E (β-lactamase carrier). Described as above. Type of test: cell-based. Particulars: Klebsiella pneumoniae, K. pneum. 1088 E, 18 to 20 hours at 37° C., read-out: minimum inhibitory concentration (MIC). How it is done:
as §1, §2, §3, §4, §5, §6, §7, §8, §9

The test system of test [8] is Klebsiella pneumoniae ATCC 10 031. Described as above. Type of test: cell-based. The conditions noted are these: K. pneum. ATCC 10031, 18 to 20 hours at 37° C., read-out: minimum inhibitory concentration (MIC). The method, then:
as §1, §2, §3, §4, §5, §6, §7, §8, §9

Test [9] concerns Klebsiella pneumoniae BC 6. The test is described as above. In kind it is cell-based. Particulars: BC6, K. pneum. BC 6, 18 to 20 hours at 37° C., read-out: minimum inhibitory concentration (MIC). The method, then:
as §1, §2, §3, §4, §5, §6, §7, §8, §9

In test [10] the test system is E. coli ATCC 11775. The test is described as follows: In vivo test on experimental E. coli infection in mice. Set-up: species or system E. coli; female mice of the NMRI strain. Particulars: Escherichia coli, ATCC11775, sc, 168 h, subcutaneous, one treatment 1 hour post infectionem, observation period 7 days, read-out: ED50 (dose at which 50% of the animals survived). How it is done: A number of the compounds according to the invention were tested in vivo on experimental infections in mice. E. coli ATCC 11775 were used as the pathogenic bacteria. An intraperitoneal infection was produced with 0.2 ml of a 5% mucin suspension of the bacteria. This corresponds to about 1.4×10^6 E. coli bacteria per mouse. Female mice of the NMRI strain were divided up into groups of 10 animals, two groups were untreated, the other groups were treated subcutaneously with various doses of the penicillin according to the invention, to determine the ED50 (dose at which 50% of the animals survived). One treatment was given (1 hour post infectionem).
In both cases, the observation period was 7 days. The results of these tests with 2 representatives of the penicillins according to the invention, compared with Temocillin, are shown in Table 3 which follows: […]

The subject of test [11] is 20 Serratia marcescens carrying β-lactamase. The test is described as follows: In vitro activity against 20 Serratia marcescens carrying β-lactamase, compared with Temocillin. In kind it is cell-based. The conditions noted are these: Serr. marc. (20). How it is done:
as §1, §2, §3, §4, §5, §6

[12] abbreviates: inoculum 5 × 10^4, read-out: Geometric Mean (MIC).
The mark [13] stands for this setting: inoculum 5 × 10^4, read-out: MIC Range.
The mark [14] stands for this setting: inoculum 5 × 10^6, read-out: Geometric Mean (MIC).

By ED50 is commonly meant the dose that gives a 50% effect, or the effect in half of the subjects.

On to `CO[C@@]1(NC(=O)C(NC(=O)Nc2cnc(NCc3ccc(S(N)(=O)=O)cc3)nc2O)c2ccc(O)cc2)C(=O)N2[C@@H](C(=O)O)C(C)(C)S[C@@H]21` (stereo partly drawn) [D], for which the MIC in test [1] was 2 µg/mL (≈ 2.79 µM); in test [2], 0.5 µg/mL (≈ 0.698 µM); in test [3], 1 µg/mL (≈ 1.4 µM); in test [4], 2 µg/mL (≈ 2.79 µM); in test [5], 4 µg/mL (≈ 5.58 µM); in test [6], 2 µg/mL (≈ 2.79 µM). The MIC in test [7] is 8 µg/mL (≈ 11.2 µM); in test [8], 1 µg/mL (≈ 1.4 µM); in test [9], 1 µg/mL (≈ 1.4 µM).

`CO[C@@]1(NC(=O)C(NC(=O)Nc2cnc(Nc3ccc(S(N)(=O)=O)cc3)nc2O)c2ccc(O)cc2)C(=O)N2[C@@H](C(=O)O)C(C)(C)S[C@@H]21` (stereo partly drawn) [A]: in test [10], the ED50 was 4 mg/kg. The MIC was 2.8 µg/mL (≈ 3.98 µM) in [11] (setting [12]); 2 to 8 µg/mL (≈ 2.85 to 11.4 µM) in test [11] (setting [13]); 10.2 µg/mL (≈ 14.5 µM) in test [11] (setting [14]); 4 to 32 µg/mL (≈ 5.69 to 45.5 µM) in test [11] (inoculum 5 × 10^6, read-out: MIC Range); 1 µg/mL (≈ 1.42 µM) in test [1]; 1 µg/mL (≈ 1.42 µM) in test [2]. Also, the MIC is 1 µg/mL (≈ 1.42 µM) in test [3]; 1 µg/mL (≈ 1.42 µM) in test [4]; 2 µg/mL (≈ 2.85 µM) in test [5]; 1 µg/mL (≈ 1.42 µM) in test [6]; 4 µg/mL (≈ 5.69 µM) in test [7]; 1 µg/mL (≈ 1.42 µM) in [8]. For the same compound, the MIC in test [9] was 1 µg/mL (≈ 1.42 µM).

Turning to `CO[C@@]1(NC(=O)C(C(=O)O)c2ccsc2)C(=O)N2[C@@H](C(=O)O)C(C)(C)S[C@@H]21` (stereo partly drawn) [Compound E, Temocillin, reference compound], the ED50 in test [10] is more than 20 mg/kg. The MIC in test [11] (setting [12]) was 10.2 µg/mL (≈ 24.6 µM); in test [11] (setting [13]) it was 8 to 16 µg/mL (≈ 19.3 to 38.6 µM); in test [11] (setting [14]), 24.3 µg/mL (≈ 58.6 µM); in test [1], 8 µg/mL (≈ 19.3 µM); in test [2] it was 2 µg/mL (≈ 4.83 µM); in test [3] it was 4 µg/mL (≈ 9.65 µM). Moreover, the MIC in test [4] stood at 4 µg/mL (≈ 9.65 µM); in test [5], 4 µg/mL (≈ 9.65 µM); in test [6], 8 µg/mL (≈ 19.3 µM); in test [7] it was 4 µg/mL (≈ 9.65 µM); in test [8], 4 µg/mL (≈ 9.65 µM); in test [9], 2 µg/mL (≈ 4.83 µM).

Turning to `CO[C@@]1(NC(=O)C(NC(=O)Nc2cnc(NCc3ccc(S(N)(=O)=O)s3)nc2O)c2ccc(O)cc2)C(=O)N2[C@@H](C(=O)O)C(C)(C)S[C@@H]21` (stereo partly drawn) [C], the MIC in [1] is 2 µg/mL (≈ 2.77 µM); in test [2] it was 0.12 µg/mL (≈ 0.166 µM); in test [3], 1 µg/mL (≈ 1.38 µM); in test [4], 1 µg/mL (≈ 1.38 µM); in [5] it was 2 µg/mL (≈ 2.77 µM); in test [6] it was 2 µg/mL (≈ 2.77 µM). The results for the MIC in test [7], in test [8] and in test [9] were 8 µg/mL (≈ 11.1 µM), 1 µg/mL (≈ 1.38 µM) and 1 µg/mL (≈ 1.38 µM), respectively.
